# Measured values as given in patent US9512087B2, “Hybrid molecules containing pharmacophores of fluconazole as antifungal agents and their preparation” (Council for Scientific & Industrial Research, priority 2011, dated 2016).
# What was measured:
# Assay in all cases: Antifungal MIC, broth dilution
# C. glabrata ATCC 90030 = type: cell-based; details: Nakaseomyces glabratus, ATCC90030, RPMI 1640 with MOPS, end point 48 hours, read-out: Cg01 MIC50
# C. neoformans ATCC 34664 = type: cell-based; details: Cryptococcus neoformans, ATCC34664, RPMI 1640 with MOPS, end point 48 hours, read-out: Cn01 MIC50
# C. albicans ATCC 24433 = type: cell-based, Candida albicans; details: Candida albicans, ATCC24433, RPMI 1640 with MOPS, end point 48 hours
# Description: (§1) The compounds of Formula 1 were tested for antifungal activity against Candida albicans, Aspergillus niger and Fusarium proliferatum. In vitro evaluation of antifungal activity was performed by determining the minimum inhibitory concentration (MIC) following standard methods (CLSI: Reference method for broth dilution antifungal susceptibility testing of yeasts; Approved standard, second edition M27-A2, 2002; CLSI: Reference method for broth dilution antifungal susceptibility testing of filamentous fungi; Approved standard M38-A, 2002). Anti-fungal susceptibility testing of these anti-fungal compounds was done by broth dilution method using RPMI 1640 medium with MOPS buffer. Known anti-fungal agents like fluconazole and amphotericin-B were used as positive control. End points were determined after 48 hours visually and by using spectrophotometer wherever necessary. Different dilutions were tried and various sets of experiments performed. The activity parameters are enumerated in Table 5.
# [1] = system: F. proliferatum ATCC 10052; type: cell-based, Fusarium proliferatum; details: Fusarium proliferatum, ATCC10052, RPMI 1640 with MOPS, end point 48 hours, read-out: Fp01 MIC50
# Description: as §1
# A. fumigatus ATCC 46645 = type: cell-based; details: Aspergillus fumigatus, ATCC46645, RPMI 1640 with MOPS, end point 48 hours, read-out: Afm01 MIC50
# C. tropicalis ATCC 750 = type: cell-based; details: Candida tropicalis, ATCC750, RPMI 1640 with MOPS, end point 48 hours, read-out: Ct01 MIC50
# C. krusei ATCC 6258 = type: cell-based; details: Pichia kudriavzevii, ATCC6258, RPMI 1640 with MOPS, end point 48 hours, read-out: Ck01 MIC50
# A. niger ATCC 16404 = type: cell-based, Aspergillus niger; details: Aspergillus niger, ATCC16404, RPMI 1640 with MOPS, end point 48 hours, read-out: An01 MIC50
# Description: as §1
smiles,measurement,setting,value
"COC(COc1ccc(C(=O)/C=C/c2ccc(Cl)cc2Cl)cc1)(Cn1cncn1)c1ccc(F)cc1F (stereo not drawn) [Compound 1A-19, (E)-3-(2,4-dichlorophenyl)-1-(4-(2-(2,4-difluorophenyl)-2-methoxy-3-(1H-1,2,4-triazol-1-yl)propoxy)phenyl)prop-2-en-1-one]",MIC50,C. glabrata ATCC 90030,1 µg/mL
same,MIC50,C. neoformans ATCC 34664,> 4 µg/mL
same,MIC80,C. albicans ATCC 24433; read-out: Ca01 A: MIC80,> 4 µg/mL
same,MIC50,C. albicans ATCC 24433; read-out: Ca01 B: MIC50,1 µg/mL
same,MIC50,[1],> 4 µg/mL
same,MIC50,A. fumigatus ATCC 46645,> 4 µg/mL
same,MIC50,C. tropicalis ATCC 750,> 4 µg/mL
same,MIC50,C. krusei ATCC 6258,> 4 µg/mL
same,MIC50,A. niger ATCC 16404,> 4 µg/mL
